The subject of this assay is anti-sulfamethazine antibody. Put plainly: Competitive direct enzyme immunoassay (EIA) with immobilized anti-sulfamethazine antibody and sulfamethazine-HRP conjugate. In kind it is binding, New Zealand female white rabbits. As to conditions: for % Cross-Reactivity: (nM of sulfamethazine for 50% binding/nM sulfa analogue for 50% binding) x 100; for % Binding Mean: quadruplicate on 14 different days. As for the experimental part:
Each well of the microtiter plate was filled with 200 µL solution of r-Protein A (2 µg/mL in l0 mM PBS, pH 7.2). These strips were sealed and incubated at 4°C for 5 hours. The r-Protein A solution was aspirated and the wells were washed 5 times with saline-Tween (0.9 percent NaCl containing 0.05 percent Tween-20). Each well was then incubated with 300µL solution of 0.l percent casein in 20 mM PBS, pH 7.2, at 37°C for 30 min and washed as described above. Each well was then filled with 200µL of antibody solution (l2.5 µg/mL in 50 mM carbonate-bicarbonate buffer, pH 9.6) and incubated at 4°C overnight (l5-20 hours). The solution was aspirated and the wells air-dried at room temperature for 2-3 hours. The antibody immobilized microtiter wells thus prepared were stored in ziplock bags at 4°C.
The enzyme conjugate (sulfamethazine-HRP) was appropriately diluted (generally l:l000) with 20 mM PBS, pH 7.2, containing 0.0l percent casein (w/v) and mixed with standards or samples in l0:l ratio. The mixture was transferred to wells ([…]) and incubated at 37°C for l hour. The wells were washed five times with 20 mM PBS, pH 7.2, containing 0.05 percent Tween-20 (v/v). Each well was then filled with l00 µL of ABTS substrate solution (combine l:l (v/v) lmM ABTS, 0.lM citrate, pH 4.0, and 0.0l% thimerosal with 0.0l% H₂O₂, and 0.0l% thimerosal) and incubated at 37°C for about 20 min for color (bluish-green) development. The color development was stopped with l00 µL of l percent SDS solution (w/v). Absorbance of the color was monitored at 405 nm in an EIA plate reader. Percent binding was calculated from the absorbance contained in the absence (B′) and presence (B) of sulfamethazine in standards/samples as follows: % binding = (B/B′) x l00.
A standard curve was prepared by plotting log sulfamethazine concentration vs. percent binding. The content of sulfamethazine in an unknown sample was determined from the standard curve.

Where “and” joins values, the source holds several entries; their conditions need not be identical. Identical values can stand only once.

With `NS(=O)(=O)c1ccc(C(=O)O)cc1` [4-Carboxybenzenesulfonamide], the “% Cross-Reactivity” value stood at 0.0%.

On to `[H]/N=C(/N)NS(=O)(=O)c1ccc(N)cc1` [Sulfaguanidine], for which the “% Cross-Reactivity” value was 0.0%.

With `Nc1ccc(S(=O)(=O)Nc2cnc3ccccc3n2)cc1` [Sulfaquinoxaline], the “% Cross-Reactivity” value is 0.0%.

`CC(=O)NS(=O)(=O)c1ccc(N)cc1` [Sulfacetamide]: the “% Cross-Reactivity” value is listed as 0.66%.

Consider `Cc1nc(NS(=O)(=O)c2ccc(N)cc2)oc1C` [N′-(4,5-Dimethyloxazol-2-yl) sulfanilamide], for which the “% Cross-Reactivity” value is reported as 0.0%.

Take `Cc1cc(NS(=O)(=O)c2ccc(N)cc2)nc(C)n1` [Sulfisomidine]: the “% Cross-Reactivity” value is listed as 0.0%.

For `Cc1cc(C(C)(C)C)c(O)c(C(C)(C)C)c1` [2,6-Di-tert.-butyl-4-methyl phenol], the “% Cross-Reactivity” value is 0.0%.

For `CC(=O)Nc1ccc(S(=O)(=O)Nc2ccc([N+](=O)[O-])cc2)cc1` [Sulfanitran], the “% Cross-Reactivity” value amounted to 0.0%.

`Cc1cc(C)nc(NS(=O)(=O)c2ccc(N)cc2)n1` [Sulfamethazine]: the “% Cross-Reactivity” value is given as 100.0%. Where the note is “competitive EIA at 0 µg/mL and 0.l µg/mL of sulfamethazine”, the “competition with sulfamethazine-HRP conjugate for antibody binding” value is on record as “competed effectively”. For the same molecule, the “50% inhibition in binding” value (mid-region of the EIA standard curve, standards in swine plasma) was “around 0.l”. The “% Binding Mean” value (sulfamethazine standard 0.016 µg/mL) was 83.1%. The “% Binding Mean” value (sulfamethazine standard 0.031 µg/mL) is on record as 76.0%. Also, the “% Binding Mean” value (sulfamethazine standard 0.063 µg/mL) amounted to 64.2%. Further, for the setting “sulfamethazine standard 0.125 µg/mL”, the “% Binding Mean” value is recorded as 48.4%. The “% Binding Mean” value (sulfamethazine standard 0.25 µg/mL) stood at 31.4%. Moreover, the “% Binding Mean” value (sulfamethazine standard 0.5 µg/mL) came out at 18.3%. Further, the “% Binding Mean” value (sulfamethazine standard 1.0 µg/mL) is reported as 10.5%.

As to `Cc1c[nH]c(=O)[nH]c1=O` [Thymine], the “% Cross-Reactivity” value is 0.0%.

Take `Cc1nnc(NS(=O)(=O)c2ccc(N)cc2)s1` [Sulfamethizole]: the “% Cross-Reactivity” value turned out to be 0.0%.

Regarding `COc1cnc(NS(=O)(=O)c2ccc(N)cc2)nc1` [5-Methoxysulfadiazine], the “% Cross-Reactivity” value was 0.34%.

Take `Cc1cc(NS(=O)(=O)c2ccc(N)cc2)no1` [Sulfamethoxazole]: the “% Cross-Reactivity” value stood at 0.0%.

For `Nc1ccc(S(=O)(=O)Nc2ccc3cn[nH]c3c2)cc1` [N′-(6-Indazolyl) sulfanilamine], the “% Cross-Reactivity” value amounted to 0.0%.

Turning to `Cc1noc(NS(=O)(=O)c2ccc(N)cc2)c1C` [Sulfisoxazole], the “% Cross-Reactivity” value was determined as 0.0%.

In the case of `Nc1ccc(S(=O)(=O)Nc2ccc(Cl)nn2)cc1` [Sulfachloropyridazine], the “% Cross-Reactivity” value was determined as 0.0%.

As for `Nc1ccc(S(=O)(=O)F)cc1` [Sulfanilyl fluoride], the “% Cross-Reactivity” value is on record as 0.0%.

Turning to Sulfasazine, the “% Cross-Reactivity” value was determined as 0.0%.

`COc1ccc(NS(=O)(=O)c2ccc(N)cc2)nn1` [Sulfamethoxypyridazine]: the “% Cross-Reactivity” value is 0.0%.

As to `Nc1ccc(S(=O)(=O)NC(=O)c2ccccc2)cc1` [Sulfabenzamide], the “% Cross-Reactivity” value is reported as 0.0%.

Consider `Nc1ccc(S(=O)(=O)Nc2ncccn2)cc1` [Sulfadiazine], for which the “% Cross-Reactivity” value is given as 0.0%.

For the molecule `Nc1ccc(S(N)(=O)=O)cc1` [Sulfanilamide], the “% Cross-Reactivity” value is reported as 0.0%.

As to `COc1cc(NS(=O)(=O)c2ccc(N)cc2)nc(OC)n1` [Sulfadimethoxine], the “% Cross-Reactivity” value is reported as 0.06%.

As for `Cc1cc(C)nc(N)n1` [2-Amino-4,6-Dimethylpyrimidine], the “% Cross-Reactivity” value is 0.07%.

As to `Nc1ccc(S(=O)(=O)[O-])cc1.O.[Na+]` [Sulfanilic acid, sodium salt hydrate], the “% Cross-Reactivity” value was found to be 0.0%.

For `NS(N)(=O)=O` [Sulfamide], the “% Cross-Reactivity” value stood at 0.0%.

On to `Nc1ccc(S(=O)(=O)Nc2ccccn2)cc1` [Sulfapyridine], for which the “% Cross-Reactivity” value worked out at 0.0%.

`Cc1ccnc(NS(=O)(=O)c2ccc(N)cc2)n1` [Sulfamerazine]: the “% Cross-Reactivity” value was 12% and 12.10%.

As to `Nc1ccc(S(=O)(=O)Nc2nccs2)cc1` [Sulfathiazole], the “% Cross-Reactivity” value was 0.07%.

Values taken from patent EP0336800A1, “Methods and kit for determining sulfamethazine in animal fluids or feed” (IDETEK, INC., priority 1988, dated 1989).
